Test results from US10662146B2, “Prodrugs of fencamfamine” (Praxis Bioresearch, LLC, priority 2015, dated 2020).
“Also recorded” adds a separate entry of the source.

Tested on: spontaneous locomotor activity
Experiment: Spontaneous locomotor activity (sLMA), oral administration
Format: in vivo, Male Sprague-Dawley (SD) rats
Details: p.o. 1, 5 or 10 mg/kg equivalent of PRX-002 (−), 60 min before 60 min test, vs vehicle
Method: Male Sprague-Dawley (SD) were housed in groups of three under controlled conditions. Water and food were available ad libitum. The rats were kept for 1 week under these conditions before behavioral test. On the day of test rats were allowed to acclimate to the testing room for at least 30 min before test compound administration. Rats were randomly assigned into 4 groups.
Vehicle was 0.1% Tween-80 and 0.5% carboxymethylcellulose to which respective amount of PRX-P4-003 was added to obtain a clear solution.
Animals were p.o. administered with Veh or 3 doses of PRX-P4-003 [1, 5 or 10 mg/kg equivalent dose of active compound PRX-002 (−)] at 60 min before spontaneous locomotor activity (sLMA) test.
The rat was placed at the center of test chamber for the 60 min sLMA video recording. 60 min of spontaneous locomotion activity was video recorded and off line analyzed with Animal Behavior Video Tracking Analysis System (Ji Liang Software Technology Co., Ltd., Shanghai, China). Total traveling distance (cm) and duration (sec) of locomotor activity of every 15 min is presented FIGS. 11A and 11B.

## CCCCCCCCCCCCCCCCCC(=O)OCOC(=O)N(CC)C1C2CCC(C2)C1c1ccccc1 (single isomer, unassigned) [PRX-P4-003, N-(Octadecanoyloxymethoxycarbonyl)-(−)-N-ethyl-3-phenylbicyclo[2.2.1]heptan-2-amine]
  Spontaneous locomotor activity (sLMA): total traveling distance and duration: dose dependent increase in sLMA; also recorded: both traveling distance and locomotion duration increased
